For assay [1], the target named is T1, human M1 muscarinic receptor (Homo sapiens, UniProt P11229).
T1 construct: purchased PerkinElmer Life and Analytical Sciences, Boston, MA
T1 sequence (P11229 1-460): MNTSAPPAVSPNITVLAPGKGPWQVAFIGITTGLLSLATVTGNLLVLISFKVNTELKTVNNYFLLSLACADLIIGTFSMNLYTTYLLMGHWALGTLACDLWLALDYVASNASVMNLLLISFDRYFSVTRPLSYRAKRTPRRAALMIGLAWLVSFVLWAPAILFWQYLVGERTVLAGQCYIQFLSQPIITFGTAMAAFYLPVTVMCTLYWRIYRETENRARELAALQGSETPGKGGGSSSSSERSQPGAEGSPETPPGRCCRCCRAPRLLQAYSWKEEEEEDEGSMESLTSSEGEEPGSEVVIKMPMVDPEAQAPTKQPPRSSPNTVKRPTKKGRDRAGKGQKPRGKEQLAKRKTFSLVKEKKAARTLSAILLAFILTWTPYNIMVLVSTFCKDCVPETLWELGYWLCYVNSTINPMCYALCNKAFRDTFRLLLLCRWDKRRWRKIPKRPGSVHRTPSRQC
Also on record: method as in Watt et al. 2013 [10]. The following applies: ref Watt et al. 2013 [10], cited from earlier work.

Assay [2] has as its target T2, human M2 muscarinic receptor (Homo sapiens, UniProt P08172).
T2 construct: purchased PerkinElmer Life and Analytical Sciences, Boston, MA
T2 sequence (P08172 1-466): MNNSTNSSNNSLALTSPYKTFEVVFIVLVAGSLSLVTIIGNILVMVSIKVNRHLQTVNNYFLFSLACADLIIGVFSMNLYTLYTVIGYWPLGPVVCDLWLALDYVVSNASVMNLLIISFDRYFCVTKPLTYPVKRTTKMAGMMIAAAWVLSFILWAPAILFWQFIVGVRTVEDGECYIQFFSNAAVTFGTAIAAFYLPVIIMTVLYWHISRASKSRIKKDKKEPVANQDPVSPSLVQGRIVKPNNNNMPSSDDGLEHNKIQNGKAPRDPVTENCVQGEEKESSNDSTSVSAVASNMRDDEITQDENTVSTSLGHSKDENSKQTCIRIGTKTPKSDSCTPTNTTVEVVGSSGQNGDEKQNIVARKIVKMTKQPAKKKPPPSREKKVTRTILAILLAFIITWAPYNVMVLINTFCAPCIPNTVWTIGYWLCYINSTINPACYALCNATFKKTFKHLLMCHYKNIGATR
The assay is described as follows: GTP-γ-[35S] binding, antibody capture SPA (agonist and antagonist mode). The class given is biochemical. The protocol: (§1) The antibody capture scintillation proximity technique previously described by DeLapp et al was used in a 96-well plate to determine GTP-γ-[35S] binding. One hundred μl (20–40 fmol/well) of membrane preparation from CHO cells that stably express the human M1-M5 muscarinic receptors (PerkinElmer Life and Analytical Sciences, Boston, MA) were incubated with varying concentration of test compound (final concentrations from 50pM to 1μM) for 30 min. One μM final concentration of GDP was added to M2 and M4 receptor membranes before incubation. […] (500 pM final concentration; Perkin Elmer Life and Analytical Sciences) was added to each well followed by 30 min of incubation. Then the labelled membranes were solubilized with 0.27% Nonidet P40 for 30 min where after they were incubated with 20 μl (final dilution of 1:400) of the appropriate rabbit polyclonal Gα antibody (Covance, Princeton, NJ) for 60 min. An anti-Gαq/11 antibody was used for the M1-, M3-, and M5 membranes, whereas an anti-Gαi-3 antibody was used for the M2- and M4 membranes (Eli Lilly and Company, Indianapolis, IN). After 60 min of incubation, 50 μl (1.25 mg/well) anti-rabbit scintillation proximity assay (SPA) beads (GE Healthcare, Piscataway, NJ) were added per well where after the plates were incubated for another 3 h. By use of a Wallac MicroBeta TriLux scintillation counter (PerkinElmer), the plates were centrifuged for 10 min at 700 × g and counted for 1 min per well. The incubations took place at room temperature in GTP-binding assay buffer (20 mM Hepes, 100 mm NaCl, 5 mM MgC12, pH 7.4). The data were analyzed by use of nonlinear regression for a sigmoidal concentration response curve (GraphPad Prism v. 4.0). Data were normalized to a full agonist response (100 μM oxotremorine-M). […] The antagonist percent inhibition data were normalized to data generated with an EC90 concentration of acetylcholine. The mean relative EC50, IC50, and %Emax, and pKi values were calculated as a mean of at least three independent experiments±SEM. In order to obtain relevant comparisons between subtypes, the experimental system is routinely calibrated with reference agonists (oxotremorine-M, pilocarpine, MCN-A343) to measure full and partial agonism as well as to ensure that the system is not under- or over-reporting functional efficacies. The radioligand binding assays have earlier been described.
Background: GTPγS resists hydrolysis and so accumulates on activated G proteins.

The target in assay [3] is T3, human M3 muscarinic receptor (Homo sapiens, UniProt P20309).
T3 construct: purchased PerkinElmer Life and Analytical Sciences, Boston, MA
T3 sequence (P20309 whole entry): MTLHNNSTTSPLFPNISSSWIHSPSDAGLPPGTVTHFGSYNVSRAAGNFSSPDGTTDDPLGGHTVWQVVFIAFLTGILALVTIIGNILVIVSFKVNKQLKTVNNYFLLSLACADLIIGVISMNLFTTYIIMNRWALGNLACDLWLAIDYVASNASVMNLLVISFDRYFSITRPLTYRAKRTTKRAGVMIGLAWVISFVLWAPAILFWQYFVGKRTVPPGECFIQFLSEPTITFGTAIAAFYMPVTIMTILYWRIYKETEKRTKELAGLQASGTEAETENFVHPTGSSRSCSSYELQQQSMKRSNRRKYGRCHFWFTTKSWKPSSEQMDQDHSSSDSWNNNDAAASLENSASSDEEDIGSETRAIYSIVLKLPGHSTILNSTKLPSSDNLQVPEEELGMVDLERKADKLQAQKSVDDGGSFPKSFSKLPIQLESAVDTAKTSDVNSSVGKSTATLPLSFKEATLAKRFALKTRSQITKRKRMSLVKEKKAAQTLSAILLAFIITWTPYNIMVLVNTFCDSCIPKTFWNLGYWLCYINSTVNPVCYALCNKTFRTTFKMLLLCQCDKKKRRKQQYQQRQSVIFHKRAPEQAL
The assay is described as above. The class given is biochemical. The protocol: as §1

Where [4] appears, read: antagonist mode, maximal inhibition of EC90 agonist response.
The mark [5] stands for this setting: percentage of maximum 100 μM oxotremorine-M signal.

Broadly, the % Inhibition is the share of the control response that was lost under treatment. For the compound `CCCCSc1nsnc1[C@H]1CN2CCC[C@H]1C2` [BuTAC, (5R,6R)-6-(3-butylthio-1,2,5-thiadiazol-4-yl)-1-azabicyclo[3.2.1]octane], in assay [1] (agonist mode, negative log-transformed), the “Rel pEC50” value is recorded as 9.22±9.80 M. For the same compound, the “% Emax” value in assay [1] (agonist mode) is given as 33.56±6.29%. In addition, the “Rel pIC50” value in assay [1] (antagonist mode, negative log-transformed) is listed as 9.03±10.01 M. Moreover, the “% Inhibition” value in assay [1] (antagonist mode) was 57.27±2.35%.

What is called EC50 is the concentration giving half of the maximal effect. In general, IC50 refers to the midpoint of a concentration-inhibition curve. A higher IC50 goes with lower potency. Usually Emax stands for the maximal effect, on the per cent scale that the assay sets. Regarding `CCCSc1nsnc1[C@H]1CN2CCC[C@H]1C2` [PTAC, (5R,6R) 6-(3-propylthio-1,2,5-thiadiazol-4-yl)-1-azabicyclo-[3.2.1]-octane], the EC50 in assay [2] was 0.501 nM; in assay [3] it was 1.95 nM. For the same compound, the IC50 in assay [2] was 3.47 nM; in assay [3] it was 20.4 nM. The results for the “% Inhibition” value in assay [2] (setting [4]) and in assay [3] (setting [4]) were 16.8 ± 5.49% and 90.45 ± 3.52%, respectively. In addition, the figures for the Emax in assay [2] (setting [5]) and in assay [3] (setting [5]) were 68.5 ± 5.23% and 11.9 ± 3.07%, respectively.

The values are drawn from PMC4399838, “Antipsychotic-Like Effect of the Muscarinic Acetylcholine Receptor Agonist BuTAC in Non-Human Primates” (PLoS ONE, 2015).
